Data reported in patent US20070117773A1, “Telomerase-inhibiting ENA oligonucleotide” (SANKYO COMPANY, LIMITED, priority 2004, published 2007).

These substances were tested on RNA oligonucleotide having the sequence of telomerase RNA (5′-UUGUCUAACCCUA-3′) (assay: Test for determining melting temperature (Tm) with telomerase RNA oligonucleotide). Conditions: 3.4 μM compound + 3.4 μM RNA oligonucleotide, 10 mM sodium phosphate buffer (pH 7.2), absorbance at 260 nm, 20° C. to 95° C.
Assay type: binding, human

| Substance | Tm (melting temperature) |
| --- | --- |
| HO-T^e2s-A^e2s-G^e2s-G^e2s-G^e2s-T^e2s-T^e2s-A^e2s-G^e2s-C^e2s-A^e2s-A^e2s-CH2CH2OH [Example 1] | 85 °C |
| HO-T^e2s-A^e2s-G^e2s-G^e2s-G^e2s-T^e2s-T^e2s-CH2CH2OH [Example 5] | 52 °C |
| HO-T^e2s-A^e2s-G^e2s-G^e2s-G^e2s-T^e2s-T^e2s-A^e2s-CH2CH2OH [Example 4] | 62 °C |
| HO-T^e2s-A^e2s-G^e2s-G^e2s-G^e2s-T^e2s-T^e2s-A^e2s-G^e2s-CH2CH2OH [Example 6] | 71 °C |
| HO-T^e2s-A^e2s-G^e2s-G^e2s-G^e2s-T^e2s-T^e2s-A^e2s-G^e2s-A^e2s-C^e2s-A^e2s-CH2CH2OH [Example 2] | 87 °C |
| HO-T^e2s-A^e2s-G^e2s-G^e2s-G^e2s-T^e2s-T^e2s-A^e2s-G^e2s-A^e2s-CH2CH2OH [Example 3] | 74 °C |
